From patent US6586006B2, “Solid delivery systems for controlled release of molecules incorporated therein and methods of making same” (Elan Drug Delivery Limited, priority 1994, dated 2003)
Entries after “also recorded” stand apart in the source; their conditions may differ.

Assays:
[1] = Devitrification / recrystallization of glasses immersed in liquid water; type: physicochemical
Experimental: However, when immersed in liquid water, the surface of the glass slowly recrystallized so that microscopic pyramidal crystals of TOAC could be seen under an inverted microscope within 15-30 min of addition of water. Crystallization was slowly progressive and within another few minutes small clusters of the typical needle shaped crystals of XPDO appeared. Since neither the needle shaped XPDO crystals nor the pyramidal TOAC crystals were adherent to the underlying glass, they were washed away readily to reveal a fresh glass surface for further slow dissolution. The complete exclusion of XPDO from the TOAC crystals ensured that this molecule, previously incorporated in the glassy TOAC matrix, was now released into the liquid phase.
(§1) The resulting glasses were tested for their utility as controlled release matrices in two ways. First, they were assessed for their ability to resist devitrification on exposure to high RH at RT. Second, they were immersed in water or phosphate-buffered saline (PBS) to study their solubility and rate of erosion by surface recrystallization.
The 10% α-GPAC and 10% TOPR in TOAC glasses and the 50:50 molar ratio TOAC:α-GPAC glass were also immersed in water to examine their rate of devitrification in liquid water rather than humid air.

[2] = Resistance of glasses to devitrification on exposure to relative humidity; type: physicochemical
Experimental: Glasses were made by evaporating DCM on a hotplate set at 65° C. from a 25% solutions of TOAC (50% solutions often deposited crystals in the pipette tip). Drying was carried out for 2 hr to be certain of complete dryness. Uniform glasses were produced by using an Eppendorf-type pipette to deliver 100 μl to a slide recently placed on the hotplate and then removing about 50 μl by using the clear/expel volume of the pipette.
XPDO was therefore incorporated into a TOAC glass by dissolving both crystalline TOAC and XPDO in DCM and evaporating the solvent at 70° C. on a hotplate. XPDO was used in proportions of 10% and 20% of total solids in the final TOAC glass.
as §1

[3] = Glass transition temperature (Tg) by thermal analysis (DSC); type: physicochemical
From the text: In general, the tendency to crystallize, from a cooling melt or with reducing solvent, is low. Both devitrification and the fluidity of the melt at temperatures close to Tg, can be controlled by modifiers such as other derivative sugars and certain organic actives. The following two tables, generated as described in the Examples presented below, provide Tg and melting temperature data for a variety of HDCs suitable for use, either alone, or in a composite glass, herein.
Dissolution of synthetic corticosteroid XPDO (described below) into a TOAC melt and quenching to form the vitreous solid dose delivery system was achieved. By looking at the release of MB9 into aqueous solution, these experiments tested the compatibility of the steroid within the glass, subsequent recovery of the steroid and studied the effect that XPDO has on the properties of the delivery system formed looking at the release of MB9 into aqueous solution. TOAC (3.21 g) was pre-melted at 150° C., before being quenched to glass. The glass was finely ground with XPDO (0.15 g) before being remelted. The clear melt was again quenched to yield the composite HDC/active glass. Thermal analysis was carried out on a Rheometric Scientific Differential Scanning Calorimeter (DSC) at a heating rate of 10°/min under a nitrogen atmosphere. The following samples were prepared:
Studies were performed using the synthetic corticosteroid XPDO dissolved in DCM. The solution was spray dried in a Buchi B-191 spray drier, using an inlet temperature of 40° C. […] XPDO was incorporated at 20 wt %. The powder was completely amorphous as confirmed by thermal analysis (Tg=46° C.).

[4] = Stability, recovery and release of XPDO from HDC glass (HPLC); type: physicochemical
Experimental: Release characteristics of the vitreous HDC solid dose delivery systems were studied by monitoring the release of MB9 from TOAC/XPDO glasses as shown in FIG. 15. For analysis of stability of active in the vitreous HDC solid dose delivery systems, XPDO was recovered from the samples by dissolving the glass in acetonitrile and analyzing by HPLC. There was full recovery of the guest substance even after storage at 45° C. for 4 weeks.
For analysis XPDO was extracted from the spray-dried powder by dissolving the powder in acetonitrile and then diluting the acetonitrile with sodium phosphate buffer prior to analysis by HPLC. Samples were set up to test stability of XPDO in the spray dried formulations at 45° C. and stored over saturated Zinc sulphate (RH 80-85%).
For release into sodium phosphate buffer, 0.0868 g of the spray dried powder was shaken in 10 mls of the buffer for 1 minute. The suspension was then filtered through a 0.2 μm filter. […] Bioavailability of the steroid from the delivery system was tested by immersion in an aqueous solution for a short time. Stability of the steroid in the spray-dried formulation was tested at high humidity and 45° C. (both factors are important if the application as an inhalable powder is to be successful). The results indicated a resistance to high humidity, stability in the glass and ready bioavailability in vitro tests.

[5] = test system: African Green monkey kidney-derived cell line Vero; test: In vitro toxicity of TOAC in Vero cell culture; type: cell-based; settings: saturated solution in 10-fold serial dilution or powder added to medium; week of culture
Experimental: A saturated solution of TOAC in deionised distilled water (0.42 g in 20 mls) was tested for toxicity in vitro using the African Green monkey kidney-derived cell line Vero, in either a 10-fold serial dilution or by adding the TOAC powder directly to the tissue culture medium.

[6] = Controlled release of encapsulated MB9 dye from HDC glass beads/discs; type: physicochemical
Experimental: In the following experiments, the delivery system was preformulated, whether as a single material, or as a mixed composition. This was carried out by intimately grinding the component HDCs together, followed by careful, controlled melting in a furnace, between 120-140° C. and with normal atmosphere to form melts. The melts were quenched to glass by pouring over a brass block. This glass was then finely ground.
MB9 dye (1 or 5 wt %) was mixed with the ground glass prior to re-melting at 140° C. The melt was quenched to form small glass beads (2.5 mm diameter) which were used in controlled release experiments.
Controlled release of encapsulated dye was monitored by suspending three such beads in 25 or 50 ml of deionized water or PBS solution at ambient temperatures (27-30° C.) or at 37° C., as indicated. The media were undisturbed, except for periodic stirring and were replaced at set intervals with fresh media (generally at 72 hr intervals). Both single HDC glasses and composite HDC glasses were formed. […] The use of other HDCs as glass modifiers in the composite HDC formulations enable the tailoring of the glasses formed to yield the release characteristics desired.
In FIG. 8, the results were obtained from TOAC glass discs (6 mm×2.5 mm) with MB9 dye evenly dispersed therein at 2 wt %. Release was controlled at 25° C. with gentle stirring and media changes at regular intervals. Note the linear release of MB9 dye over a 55 day period. The results presented in FIG. 8 indicate that a pure HDC vitreous delivery vehicle system gives zero-order release rates of guest substances. The results presented in FIGS. 9-14 show variation on release rates by changing the ratios of different HDCs in the delivery systems, changing the carbohydrate backbone length and by changing the nature of the derivative on the carbohydrate backbone. In each instance it is clear that the HDC delivery systems allow a wide range of release rates that can be tailored to the guest substance and the delivery thereof.

[7] = Encapsulation of organic substances in α-D-glucose pentaacetate glass; type: physicochemical
Experimental: Excellent recoveries were obtained in the encapsulation of several organic substances in the glasses. Glass discs of α-D-Glucose pentaacetate containing 2% w/w of the materials listed in Table 4 were formed by melting and quenching and then ground. Photochrome II is 5-chloro-1,3-dihydro-1,3,3-trimethyl spiro[2H-indole-2,3′-[3H]-napth[2,1-b] [1,4]-oxazine. The encapsulated materials were extracted by the suitable solvent such as methanol or water.
Pesticide-like Oxadiazon was dissolved easily in the melt of this glass at about 15% w/w without problem.

CCCC1OC2CC3C4CC(F)C5=CC(=O)CCC5(C)C4(F)C(O)CC3(C)C2(C(=O)CO)O1 (stereo not drawn) [XPDO, 6α,9α-difluoro-11β,21-dihydroxy-16α,17α-propyl methylene dioxy-4-pregnene-3,20-dione]
time to release of guest substance when added to liquid water ([1]; 10% (w/v) guest in HDC glass): 5 to 10 min
time to surface recrystallization after immersion in water ([1]; glass immersed in liquid water): 15 to 30 min
HDC glass stability at high relative humidity ([2]; 10% (w/v) guest in HDC (TOAC) glass, RH up to 95%, room temperature): stable when exposed to relative humidities of up to 95% at room temperature for over a month
change in glass structure such as recrystallization ([2]; guest in TOAC glass from DCM, stored at RH of 75%, 81%, 90% and 95% for 4 weeks): no change in glass structure
Tg ([3]; spray dried amorphous powder, XPDO incorporated at 20 wt %): 46 °C
degradation on HPLC analysis ([4]; spray dried glass powder, 4 weeks storage at 45° C. and 85% RH): No evidence of any degradation
release into sodium phosphate buffer ([4]; spray dried powder shaken in buffer for 1 minute, filtered, HPLC): effectively being released into aqueous solution

CC(=O)OC[C@H](OC(C)=O)[C@@H](OC(C)=O)[C@H](OC(C)=O)[C@@H](COC(C)=O)OC(C)=O [SHAC, sorbitol hexaacetate]
melting point: 100 to 104 °C
Tg/° C. ([3]; single HDC glasses (Table 1)): −6 °C

CC(=O)OCC1OC(OC2OC(COC(C)=O)C(OC(C)=O)C(OC(C)=O)C2OC(C)=O)C(OC(C)=O)C(OC(C)=O)C1OC(C)=O (stereo not drawn) [TOAC, trehalose octaacetate]
cell division [5]: normal
toxic effects [5]: No toxic effects were observed
recrystallization of glass on storage ([2]; TOAC glass from DCM on slides, room temperature, 50-60% relative humidity): gradually recrystallized over 1 month
Initial Form ([2]; mixed HDC glasses (Table 6)): Glass
After RH 24 hr ([2]; mixed HDC glasses exposed to high RH (75% to 95%) at RT, 24 hr): Cryst + + + +
devitrification at RH from 75% to 95% ([2]; thin glass films and quenched disks, RT, overnight exposure): very susceptible to devitrification at high RH; also recorded: crystallized at all RHs from 75% to 95%
Tg ([3]; glass quenched from melt, DSC, heating rate 10°/min, nitrogen): Tg = 50.1 °C
Tg/° C. ([3]; single HDC glasses (Table 1)): 50 °C
Tg/° C. ([3]; single and composite HDC glasses, mole ratios of HDCs in glass (Table 2)): 50 °C
period of linear release of MB9 dye ([6]; TOAC glass discs 6 mm×2.5 mm, MB9 2 wt %, PBS, 25° C., FIG. 8): 55 days
MB9 release characteristics ([6]; TOAC glass, MB9 dye): zero-order release characteristics

CC(C)Oc1cc(-n2nc(C(C)(C)C)oc2=O)c(Cl)cc1Cl [Oxadiazon]
amount dissolved in the melt of the glass [7]: about 15 % w/w
